Key:
[1] = Cmax in Wistar Han rat at 2 mg/kg, po or 1 mg/kg, iv; assay type: ADME, organism-based; set-up: dose 2 mg/kg; details: in vivo
[2] = Drug metabolism in Beagle dog hepatocytes assessed as metabolite formation by LC/MS analysis; assay type: ADME, cell-based, Canis lupus familiaris, Hepatocyte
[3] = Volume of distribution at steady state in Wistar Han rat at 2 mg/kg, po or 1 mg/kg, iv; assay type: ADME, organism-based; details: in vivo, read-out: Vdss
[4] = target: T1, ATP-sensitive inward rectifier potassium channel 1 (Rattus norvegicus, UniProt P35560); assay: Inhibition of rat Kir1.1 expressed in HEK293 cells by electrophysiology assay; assay type: cell-based
T1 sequence (P35560 whole entry): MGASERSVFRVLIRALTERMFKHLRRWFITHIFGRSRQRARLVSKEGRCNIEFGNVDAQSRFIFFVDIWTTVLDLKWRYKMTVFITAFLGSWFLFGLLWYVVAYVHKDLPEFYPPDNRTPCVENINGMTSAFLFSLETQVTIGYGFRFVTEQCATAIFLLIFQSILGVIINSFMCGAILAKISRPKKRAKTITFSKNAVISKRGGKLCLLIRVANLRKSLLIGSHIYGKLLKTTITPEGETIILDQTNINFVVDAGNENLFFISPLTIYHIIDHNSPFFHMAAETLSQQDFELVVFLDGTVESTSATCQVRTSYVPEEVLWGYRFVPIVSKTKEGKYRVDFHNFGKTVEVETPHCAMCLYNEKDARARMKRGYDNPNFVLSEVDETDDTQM

[5] = Toxicity in dog assessed as tolerance at 0.3 to 6 mg/kg treated for 7 days; assay type: organism-based, Canis lupus familiaris; details: in vivo, 168 h, dose 0.3-6 mg/kg, time 7 day
Cytochrome P450 2C8 = target: T2, Cytochrome P450 2C8 (Homo sapiens, UniProt P10632); assay: Inhibition of CYP2C8 (unknown origin)
T2 sequence (P10632 whole entry): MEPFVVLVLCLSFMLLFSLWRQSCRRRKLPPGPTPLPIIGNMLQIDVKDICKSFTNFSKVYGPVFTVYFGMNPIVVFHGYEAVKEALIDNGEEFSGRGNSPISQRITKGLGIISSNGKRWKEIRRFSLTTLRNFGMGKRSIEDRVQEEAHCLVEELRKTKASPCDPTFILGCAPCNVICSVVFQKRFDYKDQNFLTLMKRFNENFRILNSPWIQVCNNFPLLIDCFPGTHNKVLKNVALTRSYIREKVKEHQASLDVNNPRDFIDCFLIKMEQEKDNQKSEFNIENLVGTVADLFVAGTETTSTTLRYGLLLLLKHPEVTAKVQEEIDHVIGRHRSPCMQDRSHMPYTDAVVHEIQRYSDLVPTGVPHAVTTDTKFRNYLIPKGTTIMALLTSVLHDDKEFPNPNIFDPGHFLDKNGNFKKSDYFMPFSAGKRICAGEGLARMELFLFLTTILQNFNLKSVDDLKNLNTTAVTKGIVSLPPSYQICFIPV

[6] = AUC (0 to infinity) in Beagle dog at 2 mg/kg, po or 1 mg/kg, iv; assay type: ADME, organism-based, Canis lupus familiaris; set-up: dose 2 mg/kg; details: in vivo
[7] = Tmax in rhesus monkey at 2 mg/kg, po or 1 mg/kg, iv; assay type: ADME, organism-based, Macaca mulatta; details: in vivo
[8] = Oral bioavailability in Beagle dog at 2 mg/kg; assay type: ADME, organism-based, Canis lupus familiaris; details: in vivo
[9] = target: Voltage-dependent L-type calcium channel subunit alpha-1C (Homo sapiens, UniProt Q13936); assay: Inhibition of Cav1.2 (unknown origin)
Chain of Voltage-dependent L-type calcium channel subunit alpha-1C (Q13936 whole entry): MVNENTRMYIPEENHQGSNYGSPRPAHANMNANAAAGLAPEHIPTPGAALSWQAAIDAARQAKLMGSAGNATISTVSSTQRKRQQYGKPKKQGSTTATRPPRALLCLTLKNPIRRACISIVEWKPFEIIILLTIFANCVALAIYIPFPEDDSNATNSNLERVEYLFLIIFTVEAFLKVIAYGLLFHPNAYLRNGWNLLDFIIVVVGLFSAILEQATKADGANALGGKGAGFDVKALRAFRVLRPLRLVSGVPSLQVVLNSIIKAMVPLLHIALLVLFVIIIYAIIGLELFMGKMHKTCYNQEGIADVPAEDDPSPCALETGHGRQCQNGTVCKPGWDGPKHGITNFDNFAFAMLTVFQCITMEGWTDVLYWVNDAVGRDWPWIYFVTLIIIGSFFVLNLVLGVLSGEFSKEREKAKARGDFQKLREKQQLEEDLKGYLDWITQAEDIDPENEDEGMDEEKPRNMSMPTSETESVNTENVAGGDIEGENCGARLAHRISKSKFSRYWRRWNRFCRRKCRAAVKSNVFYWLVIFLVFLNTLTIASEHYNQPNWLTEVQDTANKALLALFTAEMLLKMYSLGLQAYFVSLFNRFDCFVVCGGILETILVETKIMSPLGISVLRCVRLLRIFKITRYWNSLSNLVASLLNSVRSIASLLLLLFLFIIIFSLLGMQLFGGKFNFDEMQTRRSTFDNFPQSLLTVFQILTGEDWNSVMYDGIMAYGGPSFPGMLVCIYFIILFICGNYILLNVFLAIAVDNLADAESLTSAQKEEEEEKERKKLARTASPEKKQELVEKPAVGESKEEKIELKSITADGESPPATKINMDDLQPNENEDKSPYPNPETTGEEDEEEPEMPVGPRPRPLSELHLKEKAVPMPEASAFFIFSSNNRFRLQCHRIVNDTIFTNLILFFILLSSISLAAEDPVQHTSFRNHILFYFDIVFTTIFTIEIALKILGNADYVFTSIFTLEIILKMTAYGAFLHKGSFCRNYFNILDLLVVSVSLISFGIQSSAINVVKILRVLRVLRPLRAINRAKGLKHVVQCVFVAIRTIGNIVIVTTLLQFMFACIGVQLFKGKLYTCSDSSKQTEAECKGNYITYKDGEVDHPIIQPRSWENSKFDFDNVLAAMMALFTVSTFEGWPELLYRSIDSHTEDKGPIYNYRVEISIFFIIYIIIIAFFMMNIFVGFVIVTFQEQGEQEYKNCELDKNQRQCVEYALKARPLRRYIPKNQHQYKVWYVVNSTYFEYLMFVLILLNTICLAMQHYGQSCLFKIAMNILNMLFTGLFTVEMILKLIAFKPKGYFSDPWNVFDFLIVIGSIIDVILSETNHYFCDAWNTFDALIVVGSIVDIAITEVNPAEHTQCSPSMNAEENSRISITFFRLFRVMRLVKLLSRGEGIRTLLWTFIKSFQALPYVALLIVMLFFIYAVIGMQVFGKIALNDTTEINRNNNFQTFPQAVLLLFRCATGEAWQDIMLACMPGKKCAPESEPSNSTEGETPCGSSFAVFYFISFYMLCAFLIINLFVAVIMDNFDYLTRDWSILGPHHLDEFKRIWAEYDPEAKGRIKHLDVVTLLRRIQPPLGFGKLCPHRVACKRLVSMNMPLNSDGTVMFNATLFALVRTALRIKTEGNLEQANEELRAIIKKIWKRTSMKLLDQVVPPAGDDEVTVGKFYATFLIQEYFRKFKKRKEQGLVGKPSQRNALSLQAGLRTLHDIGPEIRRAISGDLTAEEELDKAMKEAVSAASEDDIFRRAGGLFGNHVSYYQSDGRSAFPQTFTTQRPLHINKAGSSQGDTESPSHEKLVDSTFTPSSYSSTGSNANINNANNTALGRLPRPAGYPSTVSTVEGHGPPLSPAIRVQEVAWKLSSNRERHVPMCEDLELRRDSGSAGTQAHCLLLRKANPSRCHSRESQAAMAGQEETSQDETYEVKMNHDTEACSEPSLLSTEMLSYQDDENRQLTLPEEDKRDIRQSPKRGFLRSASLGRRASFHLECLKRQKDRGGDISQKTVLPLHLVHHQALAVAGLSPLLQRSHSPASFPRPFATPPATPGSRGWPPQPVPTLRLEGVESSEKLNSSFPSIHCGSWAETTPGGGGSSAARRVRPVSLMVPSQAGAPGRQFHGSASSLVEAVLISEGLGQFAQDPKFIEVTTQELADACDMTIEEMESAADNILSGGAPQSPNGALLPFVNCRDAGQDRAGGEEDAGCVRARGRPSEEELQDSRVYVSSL

[10] = Effective half life in Beagle dog at 2 mg/kg, po or 1 mg/kg, iv; assay type: ADME, organism-based, Canis lupus familiaris; details: in vivo, read-out: t1/2eff (converted)
[11] = target: T3, ATP-sensitive inward rectifier potassium channel 10 (Homo sapiens, UniProt P78508); assay: Inhibition of Kir4.1 (unknown origin)
T3 sequence (P78508 whole entry): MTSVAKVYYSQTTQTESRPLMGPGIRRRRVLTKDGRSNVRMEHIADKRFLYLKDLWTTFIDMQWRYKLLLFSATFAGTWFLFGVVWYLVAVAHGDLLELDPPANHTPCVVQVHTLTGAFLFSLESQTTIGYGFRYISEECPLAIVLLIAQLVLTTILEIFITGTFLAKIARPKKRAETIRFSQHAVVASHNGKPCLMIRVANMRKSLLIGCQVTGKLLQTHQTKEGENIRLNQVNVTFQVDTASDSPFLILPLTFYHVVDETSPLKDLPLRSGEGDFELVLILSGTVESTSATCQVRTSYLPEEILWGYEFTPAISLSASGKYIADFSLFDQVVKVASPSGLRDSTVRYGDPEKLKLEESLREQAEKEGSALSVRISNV

[12] = Drug metabolism in Wistar Han rat hepatocytes assessed as metabolite formation by LC/MS analysis; assay type: ADME, cell-based, Hepatocyte
[13] = Terminal half life in rhesus monkey at 2 mg/kg, po or 1 mg/kg, iv; assay type: ADME, organism-based, Macaca mulatta; details: in vivo, read-out: beta t1/2 (converted)
[14] = Toxicity in rat assessed as tolerance at 5 to 300 mg/kg treated for 7 days; assay type: organism-based; details: in vivo, 168 h, dose 5-300 mg/kg, time 7 day
[15] = Clearance in Wistar Han rat at 2 mg/kg, po or 1 mg/kg, iv; assay type: ADME, organism-based; details: in vivo
[16] = Metabolic stability in Wistar Han rat hepatocytes by LC/MS analysis; assay type: ADME, cell-based, Hepatocyte
[17] = Terminal half life in Wistar Han rat at 2 mg/kg, po or 1 mg/kg, iv; assay type: ADME, organism-based; details: in vivo, read-out: beta t1/2 (converted)
Rattus norvegicus = assay: Diuretic activity in orally dosed spontaneous hypertensive rat assessed as increase in sodium excretion treated for 3 days measured after 0 to 24 hrs of dosing; assay type: functional, organism-based; details: time 3.0 day
[18] = Volume of distribution at steady state in Beagle dog at 2 mg/kg, po or 1 mg/kg, iv; assay type: ADME, organism-based, Canis lupus familiaris; details: in vivo, read-out: Vdss
[19] = Effective half life in Wistar Han rat at 2 mg/kg, po or 1 mg/kg, iv; assay type: ADME, organism-based; details: in vivo, read-out: t1/2eff (converted)
[20] = Cmax in Beagle dog at 2 mg/kg, po or 1 mg/kg, iv; assay type: ADME, organism-based, Canis lupus familiaris; set-up: dose 2 mg/kg; details: in vivo
Cytochrome P450 3A4 = Cytochrome P450 3A4 (Homo sapiens, UniProt P08684); assay: Inhibition of CYP3A4 (unknown origin)
Chain of Cytochrome P450 3A4 (P08684 whole entry): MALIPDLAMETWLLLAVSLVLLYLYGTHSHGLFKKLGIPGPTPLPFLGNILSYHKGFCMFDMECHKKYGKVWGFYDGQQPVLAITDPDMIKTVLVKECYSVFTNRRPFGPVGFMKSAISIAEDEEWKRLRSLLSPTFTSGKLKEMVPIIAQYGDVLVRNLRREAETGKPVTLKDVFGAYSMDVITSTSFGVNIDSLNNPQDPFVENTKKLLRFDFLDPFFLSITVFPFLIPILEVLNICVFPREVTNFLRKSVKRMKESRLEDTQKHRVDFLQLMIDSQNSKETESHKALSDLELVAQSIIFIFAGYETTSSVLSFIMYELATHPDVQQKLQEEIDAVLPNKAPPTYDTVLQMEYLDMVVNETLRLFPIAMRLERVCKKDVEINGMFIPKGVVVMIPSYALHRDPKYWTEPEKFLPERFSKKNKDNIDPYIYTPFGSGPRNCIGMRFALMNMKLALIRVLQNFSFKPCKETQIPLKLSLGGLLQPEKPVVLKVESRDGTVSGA

[21] = AUC (0 to infinity) in Wistar Han rat at 2 mg/kg, po or 1 mg/kg, iv; assay type: ADME, organism-based; set-up: dose 2 mg/kg; details: in vivo
[22] = target: T4, ATP-sensitive inward rectifier potassium channel 1 (Homo sapiens, UniProt P48048); assay: Inhibition of human ROMK expressed in CHO cells by whole cell voltage clamp electrophysiology assay; assay type: cell-based
T4 sequence (P48048 whole entry): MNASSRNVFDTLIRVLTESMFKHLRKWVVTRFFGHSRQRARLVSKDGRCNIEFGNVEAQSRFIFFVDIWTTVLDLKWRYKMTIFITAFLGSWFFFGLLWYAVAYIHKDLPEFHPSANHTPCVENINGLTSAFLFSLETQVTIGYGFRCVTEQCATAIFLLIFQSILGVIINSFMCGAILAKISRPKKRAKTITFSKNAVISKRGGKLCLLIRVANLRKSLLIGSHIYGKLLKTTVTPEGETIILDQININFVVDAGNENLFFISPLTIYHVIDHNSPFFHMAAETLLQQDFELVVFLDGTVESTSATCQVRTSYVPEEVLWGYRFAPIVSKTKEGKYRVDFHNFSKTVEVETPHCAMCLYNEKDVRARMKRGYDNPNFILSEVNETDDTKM

Cmax [1]: 310 nM
Drug metabolism [2]: Metabolite_Notdetected
Vd [3]: 14.7 L/kg
IC50 [4]: 2.8 nM
IC50 (Cytochrome P450 2C8): > 50 µM
AUC(0-inf) [6]: 15.1 µM·h
Tmax [7]: 30 min
bioavailability [8]: 100%
half-life [10]: 408 min
IC50 [11]: > 100 µM
Drug metabolism [12]: Metabolite_Notdetected
half-life [13]: 198 min
clearance [15]: 29.4 mL/min/kg
Stability [16]: Stable
half-life [17]: 216 min
Vd [18]: 5.2 L/kg
half-life [19]: 108 min
Cmax [20]: 2400 nM
IC50 (Cytochrome P450 3A4): > 50 µM
AUC(0-inf) [21]: 1.4 µM·h
IC50 [22]: 5 nM
Structure (SMILES): CC1=C(N2CCC3(CCN(C[C@H](O)c4ccc5c(c4C)COC5=O)CC3)C2=O)COC1=O
Activity [5]: Non-Toxic
IC50 [9]: > 30 µM
Activity [14]: Non-Toxic
Activity (Rattus norvegicus): Dose-Dependent Effect
